Twelve compounds from ChEMBL document CHEMBL2203105, “Structure-related cytotoxic activity of derivatives from kulokekahilide-2, a cyclodepsipeptide in Hawaiian marine mollusk” (Bioorg Med Chem Lett, 2012) can be followed below.

In one series the test system is K562. The series can be described thus: Cytotoxicity against human K562 cells assessed as cell viability after 72 hrs by celltiter-blue assay. It counts as functional, cell-based. Particulars: K562, 72 h.
The test system of another series is MCF7. Briefly: Cytotoxicity against human MCF7 cells assessed as cell viability after 72 hrs by celltiter-blue assay. It counts as functional, cell-based. To be noted: MCF7, 72 h.
The next series relates to A549. Briefly: Cytotoxicity against human A549 cells assessed as cell viability after 72 hrs by celltiter-blue assay. It counts as functional, cell-based. Particulars: A549, 72 h.
The nature of series [1]: Chemical stability of the compound in DMSO by NMR analysis. The class given is physicochemical.

pIC50: −log10 of the molar value.

With `C/C=C(\C)[C@H]1OC(=O)[C@@H](C)NC(=O)[C@H]([C@@H](C)CC)NC(=O)CN(C)C(=O)[C@@H](Cc2ccccc2)N(C)C(=O)[C@@H](C)NC(=O)[C@@H](CC(C)C)OC(=O)/C(C)=C/C[C@H](O)[C@@H]1C`, the pIC50 is 6.23 in the series with K562, 5.78 in the series with MCF7 and 5.98 with A549.

Regarding `C/C=C(\C)[C@@H](O)[C@@H](C)[C@@H]1C/C=C(\C)C(=O)O[C@H](CC(C)C)C(=O)N[C@H](C)C(=O)N(C)[C@H](Cc2ccccc2)C(=O)N(C)CC(=O)N[C@@H]([C@@H](C)CC)C(=O)N[C@H](C)C(=O)O1`, the figures for the pIC50 in the series on K562, in the series with MCF7 and in the series with A549 were 6.03, 5.43 and 5.97, respectively.

With `C/C=C(\C)[C@H]1OC(=O)[C@@H](C)NC(=O)[C@H]([C@@H](C)CC)NC(=O)CN(C)C(=O)[C@@H](Cc2ccc(Cl)cc2)N(C)C(=O)[C@H](C)NC(=O)[C@@H](CC(C)C)OC(=O)/C(C)=C/C[C@H](OCSC)[C@@H]1C`, the pIC50 is 8.15 in the series with K562, 8.19 in the series with MCF7 and 9.14 in the series with A549.

On to `C/C=C(\C)[C@@H](OC(=O)[C@@H](C)N)[C@@H](C)C(C/C=C(\C)C(=O)O[C@H](CC(C)C)C(=O)N[C@@H](C)C(=O)N(C)[C@H](Cc1ccccc1)C(=O)N(C)CC(=O)N[C@H](C(=O)O)[C@@H](C)CC)OCSC` (single isomer, unassigned), for which the negative-log IC50 (pIC50) in the series with K562, in the series on MCF7 and in the series on A549 was below 5.00 in each case.

As to `C/C=C(\C)[C@@H](O)[C@@H](C)[C@@H]1C/C=C(\C)C(=O)O[C@H](CC(C)C)C(=O)N[C@@H](C)C(=O)N(C)[C@H](Cc2ccc(Cl)cc2)C(=O)N(C)CC(=O)N[C@@H]([C@@H](C)CC)C(=O)N[C@H](C)C(=O)O1`, the figures for the pIC50 in the series with K562, with MCF7 and in the series on A549 were 12.67, 10.60 and 13.70, respectively.

As for `C/C=C(\C)[C@H]1OC(=O)[C@@H](C)NC(=O)[C@H]([C@@H](C)CC)NC(=O)CN(C)C(=O)[C@@H](Cc2ccccc2)N(C)C(=O)[C@H](C)NC(=O)[C@@H](CC(C)C)OC(=O)/C(C)=C/C[C@H](OC(=O)c2ccccc2)[C@@H]1C`, the pIC50 in the series with K562 was 8.74; in the series with MCF7 it was 8.54; with A549 it was 12.24.

As to `C/C=C(\C)[C@@H](O)[C@@H](C)[C@@H]1C/C=C(\C)C(=O)O[C@H](CC(C)C)C(=O)N[C@@H](C)C(=O)N(C)[C@H](Cc2ccccc2)C(=O)N(C)CC(=O)N[C@@H]([C@@H](C)CC)C(=O)N[C@H](C)C(=O)O1`, the Stability entry in series [1] is given as “Stable”. Also, the pIC50 is 10.92 in the series on K562, 9.54 with MCF7 and 11.85 in the series on A549.

As to `C/C=C(\C)[C@H]1OC(=O)[C@@H](C)NC(=O)[C@H]([C@@H](C)CC)NC(=O)CN(C)C(=O)[C@@H](Cc2ccccc2)N(C)C(=O)[C@H](C)NC(=O)[C@@H](CC(C)C)OC(=O)/C(C)=C/C[C@H](OCSC)[C@@H]1C`, the results for the pIC50 in the series on K562, in the series with MCF7 and in the series with A549 were 11.20, 8.20 and 12.72, respectively.

On to `C/C=C(\C)[C@H]1OC(=O)[C@@H](C)NC(=O)[C@H]([C@@H](C)CC)NC(=O)CN(C)C(=O)[C@@H](Cc2ccc(Cl)cc2)N(C)C(=O)[C@H](C)NC(=O)[C@@H](CC(C)C)OC(=O)/C(C)=C/C[C@H](O)[C@@H]1C`, for which the figures for the pIC50 in the series on K562, in the series with MCF7 and with A549 were 13.96, 11.52 and 14.00, respectively.

With `C/C=C(\C)[C@H]1OC(=O)[C@@H](C)NC(=O)[C@H]([C@@H](C)CC)NC(=O)CN(C)C(=O)[C@@H](Cc2ccccc2)N(C)C(=O)[C@@H](C)NC(=O)[C@@H](CC(C)C)OC(=O)/C(C)=C/C[C@H](OCSC)[C@@H]1C`, the pIC50 in the series with K562 is 5.92; in the series on MCF7, below 5.00; with A549, 5.36.

`C/C=C(\C)[C@H]1OC(=O)[C@@H](C)NC(=O)[C@H]([C@@H](C)CC)NC(=O)CN(C)C(=O)[C@@H](Cc2ccccc2)N(C)C(=O)[C@H](C)NC(=O)[C@@H](CC(C)C)OC(=O)/C(C)=C/C[C@H](O)[C@@H]1C`: the Stability entry in series [1] is “Stable”. For the same compound, the pIC50 in the series on K562 is 11.51; with MCF7, 9.66; in the series on A549, 11.68.

Turning to `CC[C@H](C)[C@H](NC(=O)CN(C)C(=O)[C@@H](Cc1ccccc1)N(C)C(=O)[C@H](C)NC(=O)[C@H](O)CC(C)C)C(=O)O`, the pIC50 with K562, with MCF7 and with A549 was below 5.00 each time.
